assay: not given

Row | logP | SMILES
1 | 2.73 | O=c1[nH]c2ccccc2n1CCCN1CCN(C(c2ccccc2)c2ccccc2)CC1

assay: method code SF, from DOI: 10.1063/1.555833

Row | SMILES | logP
2 | CCc1n[nH]c(N)c1-c1ccc(OC)c(OC)c1 | 1.37
3 | Nc1c(-c2ccccc2)cnn1-c1ccccc1 | 2.52
4 | Nc1[nH]nc(Cc2ccccc2)c1-c1ccccc1 | 2.39
5 | COc1ccc(-c2c(C)n[nH]c2N)cc1OC | 1.33
6 | COc1ccc(-c2cnoc2N)cc1OC | 0.48
7 | COc1ccc(-c2cn[nH]c2N)cc1OC | 0.85
8 | COc1ccc(-c2c(C)noc2N)cc1OC | 1.53

Other lines, results leading:

Row | logP | SMILES
9 | 2.92 | Cc1nn(-c2ccccc2)c(N)c1-c1ccccc1
10 | 2.85 | O=C(NCCCCCCNC(=O)c1ccccc1O)c1ccccc1O
11 | 3.58 | Cc1cc2c(c3c1[nH]c1ccccc13)C(=O)CC(C)(C)C2
12 | 1.96 | CCc1n[nH]c(N)c1-c1ccccc1
13 | 2.16 | CC(=O)n1cc(C2=C(O)C(C)(C)CCC2=O)c2ccccc21
14 | 2.82 | CCc1nn(-c2ccccc2)c(N)c1-c1ccc(OC)c(OC)c1
15 | 2.26 | CCCCN1C(=O)c2ccc([N+](=O)[O-])cc2C1=O
16 | 1.94 | COc1ccc(Cc2nc3ccccc3c(=O)n2N)cc1OC
17 | 2.48 | O=C1Cc2ccccc2C(c2ccc([N+](=O)[O-])cc2)N1 (configuration not stated)

Source: the SangsterLogP compilation
